Measured values from patent US10570457B2, “Methods for predicting drug responsiveness” (Medical Prognosis Institute A/S, priority 2014, dated 2020).

What was measured:
[1] = target: T1, topoisomerase I (Homo sapiens, UniProt P11387); conditions: metabolite of irinotecan; cited from earlier work
T1 sequence (P11387 1-765): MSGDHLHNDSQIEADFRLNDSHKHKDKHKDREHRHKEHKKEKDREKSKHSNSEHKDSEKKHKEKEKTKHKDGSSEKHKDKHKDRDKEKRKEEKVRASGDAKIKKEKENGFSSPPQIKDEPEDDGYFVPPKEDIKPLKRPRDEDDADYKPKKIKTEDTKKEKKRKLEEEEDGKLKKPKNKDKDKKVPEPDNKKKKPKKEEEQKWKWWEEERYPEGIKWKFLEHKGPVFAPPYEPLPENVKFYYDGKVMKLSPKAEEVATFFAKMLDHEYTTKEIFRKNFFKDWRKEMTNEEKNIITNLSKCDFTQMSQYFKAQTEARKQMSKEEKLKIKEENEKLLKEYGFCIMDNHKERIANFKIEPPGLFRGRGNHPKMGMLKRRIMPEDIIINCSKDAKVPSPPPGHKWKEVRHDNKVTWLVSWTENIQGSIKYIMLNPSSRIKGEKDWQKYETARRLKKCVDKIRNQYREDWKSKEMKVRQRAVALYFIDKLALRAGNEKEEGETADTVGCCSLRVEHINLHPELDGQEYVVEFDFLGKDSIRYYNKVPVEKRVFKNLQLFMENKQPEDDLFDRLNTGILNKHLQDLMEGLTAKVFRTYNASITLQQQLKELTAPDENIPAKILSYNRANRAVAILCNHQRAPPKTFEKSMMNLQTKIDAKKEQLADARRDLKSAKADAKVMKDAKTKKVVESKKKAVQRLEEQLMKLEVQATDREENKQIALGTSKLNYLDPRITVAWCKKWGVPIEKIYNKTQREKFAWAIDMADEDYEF

[2] = system: colorectal cancer patients; assay: Survival of colon cancer patients treated with 5-FU, grouped by NT5E-predicted sensitivity; format: in vivo, human; conditions: adjuvant chemotherapy with 5-FU; NT5E expression below vs above population median; 232 colorectal cancer biopsies; p=0.006
Method: A clinical dataset of 232 pre-treatment fresh frozen colorectal cancer surgical biopsies was downloaded from Gene Expression Omnibus under accession number GSE17538. The biopsies were analyzed using the Affymetrix HG-U133-Plus_2 array type. The expression of NT5E was determined by reading the intensity of Affymetrix probeset 203939_at, which is predicted to be more highly expressed in 5-FU-resistant patients. Patients were predicted sensitive to 5-FU if the expression of NT5E was below the population median. Patients were predicted resistant if expression of NT5E was above the population median.

[3] = system: colorectal cancer; conditions: cited from earlier work

## CCc1c2c(nc3ccc(O)cc13)-c1cc3c(c(=O)n1C2)COC(=O)[C@]3(O)CC [SN-38]
[1]
  Potency as a topoisomerase inhibitor relative to irinotecan: significantly greater potency

## O=c1[nH]cc(F)c(=O)[nH]1 [5-Fluorouracil (5-FU), 5-fluorouracil]
[2]
  Survival of predicted-sensitive group versus predicted-resistant group: significantly higher rate of survival
[3]; adjuvant setting of colorectal cancer
  Survival effect of 5-FU treatment: survival benefit
[3]; metastatic colorectal cancer
  Response rate, 5-FU monotherapy: 10-15%
